According to US8952021B2, “Compounds for the prevention and treatment of cardiovascular disease” (Resverlogix Corp., priority 2009, dated 2015):

Tests used:
[1] = tested on: ApoA-I mRNA; test: Quantification of ApoA-I mRNA in HepG2 cells (real-time PCR); format: cell-based; parameters: key: Active: An active compound was defined as one that caused a ≧20% increase in ApoA-I mRNA at a concentration less than or equal to 100 μM; details: fold induction relative to DMSO control, concentration less than or equal to 100 μM
Method: In this example, ApoA-I mRNA in tissue culture cells was quantitated to measure the transcriptional up-regulation of ApoA-I when treated with a compound of the invention.
HepG2 cells (approximately 2×10^5 per well) were placed in a 24-well plate in approximately 400 μL MEM, supplemented with 0.5% (v/v) FBS, 24 h before addition of the compound of interest. At time of harvesting, the spent media was removed from the HepG2 cells and immediately placed on ice (for immediate use) or at −80° C. (for future use) in ApoA-I and albumin ELISAs. The cells remaining in the plate wells were rinsed in 200 μL PBS. PBS was carefully removed to avoid removing any loosely attached cells.
Once the PBS was removed, 85 μL cell lysis solution was added the cells in each well and incubated for 5-10 minutes at room temperature, to allow for complete cell lysis and detachment. mRNA was then prepared using the “mRNA Catcher PLUS plate” from Invitrogen, according to the protocol supplied. After the last wash, as much wash buffer as possible was aspirated without allowing the wells to dry. Elution Buffer (E3, 80 μL) was then added to each well. mRNA was then eluted by incubating the mRNA Catcher PLUS plate with Elution Buffer for 5 minutes at 68° C. and then immediately placing the plate on ice.
The eluted mRNA isolated was then used in a one-step real-time […] reaction, using components of the Ultra Sense Kit together with Applied Biosystems primer-probe mixes. Real-time PCR data was analyzed, using the Ct values, to determine the fold induction of each unknown sample, relative to the control (that is, relative to the control for each independent DMSO concentration).
An active compound was defined as one that caused a ≧20% increase in ApoA-I mRNA at a concentration less than or equal to 100 μM.

[2] = tested on: subjects with low HDL-C; details: cited from earlier work

Structure (SMILES) | Effect on ApoA-I mRNA levels [1] | melting point | increase in the HDL-C level [2] | reduction of the CHD risk [2]
Cc1cc(-c2nc3c(Cl)cccc3c(=O)n2-c2ccc(Br)cc2)cc(C)c1OCCO [Example 20, 3-(4-bromophenyl)-8-chloro-2-(4-(2-hydroxyethoxy)-3,5-dimethylphenyl)quinazolin-4(3H)-one] | Active | 185 to 186 °C | – | –
CCC(C)c1ccc(-n2c(-c3ccc(OCCO)cc3)nc3ccccc3c2=O)cc1 (stereo not shown) [Example 6, 3-(4-sec-butylphenyl)-2-(4-(2-hydroxyethoxy)phenyl)quinazolin-4(3H)-one] | Active | 172.8 to 174.9 °C | – | –
CCC(C)c1ccc(-n2c(-c3cc(C)c(OCCO)c(C)c3)nc3ccc(S(C)(=O)=O)cc3c2=O)cc1 (stereo not shown) [Example 15, 3-(4-sec-butylphenyl)-2-(4-(2-hydroxyethoxy)-3,5-dimethylphenyl)-6-(methylsulfonyl)quinazolin-4(3H)-one] | Active | 258.8 to 260.2 °C | – | –
Cc1cc(-c2nc3ccccc3c(=O)n2-c2ccc(I)cc2)cc(C)c1OCCO [Example 8, 2-(4-(2-hydroxyethoxy)-3,5-dimethylphenyl)-3-(4-iodophenyl)quinazolin-4(3H)-one] | Active | 101 to 103 °C | – | –
Cc1cc(-c2nc3ccccc3c(=O)n2-c2ccc(F)cc2)cc(C)c1OCCO [Example 7, 3-(4-fluorophenyl)-2-(4-(2-hydroxyethoxy)-3,5-dimethylphenyl)quinazolin-4(3H)-one] | Active | 95 to 97 °C | – | –
CCC(C)c1ccc(-n2c(-c3cc(C)c(OCCO)c(C)c3)nc3c(OC)cccc3c2=O)cc1 (stereo not shown) [Example 14, 3-(4-sec-butylphenyl)-2-(4-(2-hydroxyethoxy)-3,5-dimethylphenyl)-8-methoxyquinazolin-4(3H)-one] | Active | 158 to 159 °C | – | –
Cc1cc(-c2nc3ccccc3c(=O)n2-c2ccc(C(C)C)cc2)cc(C)c1OCCO [Example 18, 2-(4-(2-hydroxyethoxy)-3,5-dimethylphenyl)-3-(4-isopropylphenyl)quinazolin-4(3H)-one] | Active | 160 to 162 °C | – | –
COc1ccc2nc(-c3cc(C)c(OCCO)c(C)c3)n(-c3ccc(Br)cc3)c(=O)c2c1 [Example 16, 3-(4-bromophenyl)-2-(4-(2-hydroxyethoxy)-3,5-dimethylphenyl)-6-methoxyquinazolin-4(3H)-one] | Active | 160 to 162 °C | – | –
Cc1cc(-c2nc3ccccc3c(=O)n2-c2ccc(Br)cc2)cc(C)c1OCCO [Example 3, 3-(4-bromophenyl)-2-(4-(2-hydroxyethoxy)-3,5-dimethylphenyl)quinazolin-4(3H)-one] | Active | 164 to 165 °C | – | –
CCC(C)c1ccc(-n2c(-c3cc(C)c(OCCO)c(C)c3)nc3cc(S(C)(=O)=O)ccc3c2=O)cc1 (stereo not shown) [Example 12, 3-(4-sec-butylphenyl)-2-(4-(2-hydroxyethoxy)-3,5-dimethylphenyl)-7-(methylsulfonyl)quinazolin-4(3H)-one] | Active | 235 to 237 °C | – | –
Cc1cc(-c2nc3ccccc3c(=O)n2-c2ccc(Cl)cc2)cc(C)c1OCCO [Example 10, 3-(4-chlorophenyl)-2-(4-(2-hydroxyethoxy)-3,5-dimethylphenyl)quinazolin-4(3H)-one] | Active | 101 to 103 °C | – | –
CCC(C)c1ccc(-n2c(-c3cc(C)c(OCCO)c(C)c3)nc3ccccc3c2=O)cc1 (stereo not shown) [Example 1 and 2, 3-(4-sec-butylphenyl)-2-(4-(2-hydroxyethoxy)-3,5-dimethylphenyl)quinazolin-4(3H)-one] | – | 152 to 153 °C | – | –
COc1cccc2c(=O)n(-c3ccc(Br)cc3)c(-c3cc(C)c(OCCO)c(C)c3)nc12 [Example 17, 3-(4-bromophenyl)-2-(4-(2-hydroxyethoxy)-3,5-dimethylphenyl)-8-methoxyquinazolin-4(3H)-one] | Active | 100 to 102 °C | – | –
Cc1ccc(C)c(OCCCC(C)(C)C(=O)O)c1 [gemfibrozil] | – | – | 6% | 22%
Cc1cc(-c2nc3ccccc3c(=O)n2-c2ccc(Br)cc2)ccc1OCCO [Example 19, 3-(4-bromophenyl)-2-(4-(2-hydroxyethoxy)-3-methylphenyl)quinazolin-4(3H)-one] | Active | 92 to 93 °C | – | –
CCC(C)c1ccc(-n2c(-c3cc(C)c(OCCO)c(C)c3)nc3ccncc3c2=O)cc1 (stereo not shown) [Example 5, 3-(4-sec-butylphenyl)-2-(4-(2-hydroxyethoxy)-3,5-dimethylphenyl)pyrido[4,3-d]pyrimidin-4(3H)-one] | Active | 195 to 196 °C | – | –
CCC(C)c1ccc(-n2c(-c3cc(C)c(OCCO)c(C)c3)nc3ccc(OC)cc3c2=O)cc1 (stereo not shown) [Example 13, 3-(4-sec-butylphenyl)-2-(4-(2-hydroxyethoxy)-3,5-dimethylphenyl)-6-methoxyquinazolin-4(3H)-one] | Active | 152 to 154 °C | – | –
CCC(C)c1ccc(-n2c(-c3ccc(C(F)(F)F)nc3)nc3ccccc3c2=O)cc1 (stereo not shown) [Example 54, 3-(4-sec-butylphenyl)-2-(6-(trifluoromethyl)pyridin-3-yl)quinazolin-4(3H)-one] | Active | – | – | –
